Assay results as given in PMC12281424, “A Rac-specific competitive inhibitor of guanine nucleotide binding reduces metastasis in triple-negative breast cancer” (Cell Reports Medicine, 2025).

Assays:
JAK1(h) = JAK1(h) (Homo sapiens, UniProt P23458); test: Kinase Profiler; assay type: biochemical
Method: (§1) The kinase profiler was performed by the company Eurofins (Discovery, Panlab and Cerep).

ZAK(h) = ZAK(h) (Homo sapiens, UniProt Q9NYL2); test: Kinase Profiler; assay type: biochemical
Method: as §1

Met(D1246N)(h) = Met(D1246N)(h) (Homo sapiens, UniProt P08581, D1228N); test: Kinase Profiler; assay type: biochemical
Method: as §1

[1] = In vivo toxicity, chronic daily intraperitoneal injection; design: species or system mouse; settings: 1, 10 and 25 mg/kg daily i.p. for 1 month
Method: In order to assess the anti-tumor properties of A41 in vivo, we first would like to make sure of the safety and the absence of major off-target effects of A41. […] In vivo safety has been addressed by monitoring various biological parameters in mice chronically receiving daily intraperitoneal A41 injection (1, 10, and 25 mg/kg) for 1 month. […] We then analyzed pharmacokinetics and tissue distribution of A41 following intraperitoneal injection of A41 (25 mg/kg). A41 rapidly reached its peak plasma concentration (∼15 min, 15.056 ± 0.5 μg/mL), which then declined over 2–3 h (Figure S7). A41 was detected in the liver, heart, and lungs.
Supplementary Fig. 6: In vivo A41 toxicity. (a) Effect of chronic administration of A41 at the indicated concentrations by daily intraperitoneal injections in mice on weight gain glycemia. (b) and (c), Glycemia (b) and plasmatic concentration of transaminases (ALAT and ASAT), albumin, urea, creatinine and total protein in mice after of 1 month of chronic administration of A41 at indicated concentrations (c). N=6-7

[2] = target: Leukotriene, Cysteinyl CysLT1 (Homo sapiens, UniProt Q9Y271); test: Safety screen; assay type: binding
Method: (§2) Blood cell counts, kinase profiler, safety screen, bacterial cytotoxicity, Ames, micronucleus assays were performed by the company Eurofins (France).

TTK(h) = TTK(h) (Homo sapiens, UniProt P33981); test: Kinase Profiler; assay type: biochemical
TTK(h), sequence (P33981 whole entry): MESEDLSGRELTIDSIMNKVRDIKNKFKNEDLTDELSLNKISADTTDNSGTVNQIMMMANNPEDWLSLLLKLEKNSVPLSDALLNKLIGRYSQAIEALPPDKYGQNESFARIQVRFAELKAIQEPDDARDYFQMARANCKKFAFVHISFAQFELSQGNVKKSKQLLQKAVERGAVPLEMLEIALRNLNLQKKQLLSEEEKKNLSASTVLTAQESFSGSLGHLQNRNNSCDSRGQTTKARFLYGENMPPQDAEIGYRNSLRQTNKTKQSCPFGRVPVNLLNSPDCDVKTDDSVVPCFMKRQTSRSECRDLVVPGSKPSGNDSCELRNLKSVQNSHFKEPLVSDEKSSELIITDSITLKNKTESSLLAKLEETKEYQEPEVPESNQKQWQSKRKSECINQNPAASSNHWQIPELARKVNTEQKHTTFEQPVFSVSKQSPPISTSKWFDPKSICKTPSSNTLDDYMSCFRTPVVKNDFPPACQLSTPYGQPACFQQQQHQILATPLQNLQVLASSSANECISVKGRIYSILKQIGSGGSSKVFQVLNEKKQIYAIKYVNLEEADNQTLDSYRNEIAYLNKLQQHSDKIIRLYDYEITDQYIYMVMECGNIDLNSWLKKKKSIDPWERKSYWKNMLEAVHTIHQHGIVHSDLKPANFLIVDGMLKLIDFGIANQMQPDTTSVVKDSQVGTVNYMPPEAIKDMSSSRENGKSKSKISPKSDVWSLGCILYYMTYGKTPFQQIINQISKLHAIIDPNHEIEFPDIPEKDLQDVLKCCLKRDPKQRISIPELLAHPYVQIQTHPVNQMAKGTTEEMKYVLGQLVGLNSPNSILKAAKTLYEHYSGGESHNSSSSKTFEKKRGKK
Method: as §1

AMPKα2(h) = AMPKα2(h) (Homo sapiens, UniProt P54646); test: Kinase Profiler; assay type: biochemical
Method: (§3) Blood cell counts, kinase profiler, safety screen, bacterial cytotoxicity, Ames, micronucleus assays were performed by the company Eurofins (France). The kinase profiler was performed by the company Eurofins (Discovery, Panlab and Cerep).

PKG1α(h) = PKG1α(h) (Homo sapiens, UniProt Q13976); test: Kinase Profiler; assay type: biochemical
Method: as §1

Lyn(h) = Lyn(h) (Homo sapiens, UniProt P07948); test: Kinase Profiler; assay type: biochemical
Lyn(h), sequence (P07948 whole entry): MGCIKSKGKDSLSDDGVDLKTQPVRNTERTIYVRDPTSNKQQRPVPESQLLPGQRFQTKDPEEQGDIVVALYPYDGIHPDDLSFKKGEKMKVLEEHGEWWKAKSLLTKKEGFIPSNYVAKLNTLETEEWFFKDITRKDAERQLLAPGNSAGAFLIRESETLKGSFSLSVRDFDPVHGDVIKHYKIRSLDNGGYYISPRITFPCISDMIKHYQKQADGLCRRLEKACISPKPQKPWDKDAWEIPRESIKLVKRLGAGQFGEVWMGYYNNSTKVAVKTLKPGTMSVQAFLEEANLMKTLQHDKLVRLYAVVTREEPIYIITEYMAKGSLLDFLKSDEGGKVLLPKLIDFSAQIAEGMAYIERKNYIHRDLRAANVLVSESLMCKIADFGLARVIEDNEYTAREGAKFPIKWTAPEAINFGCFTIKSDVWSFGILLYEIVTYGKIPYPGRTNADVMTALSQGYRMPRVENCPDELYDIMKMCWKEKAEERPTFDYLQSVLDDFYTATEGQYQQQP
Method: as §1

IRAK4(h) = IRAK4(h) (Homo sapiens, UniProt Q9NWZ3); test: Kinase Profiler; assay type: biochemical
Method: as §1

ACTR2(h) = ACTR2(h) (Homo sapiens, UniProt P27037); test: Kinase Profiler; assay type: biochemical
Method: as §1

CK2(h) = CK2(h) (Homo sapiens, UniProt P68400); test: Kinase Profiler; assay type: biochemical
Method: as §1

PKCι(h) = PKCι(h) (Homo sapiens, UniProt P41743); test: Kinase Profiler; assay type: biochemical
PKCι(h), sequence (P41743 whole entry): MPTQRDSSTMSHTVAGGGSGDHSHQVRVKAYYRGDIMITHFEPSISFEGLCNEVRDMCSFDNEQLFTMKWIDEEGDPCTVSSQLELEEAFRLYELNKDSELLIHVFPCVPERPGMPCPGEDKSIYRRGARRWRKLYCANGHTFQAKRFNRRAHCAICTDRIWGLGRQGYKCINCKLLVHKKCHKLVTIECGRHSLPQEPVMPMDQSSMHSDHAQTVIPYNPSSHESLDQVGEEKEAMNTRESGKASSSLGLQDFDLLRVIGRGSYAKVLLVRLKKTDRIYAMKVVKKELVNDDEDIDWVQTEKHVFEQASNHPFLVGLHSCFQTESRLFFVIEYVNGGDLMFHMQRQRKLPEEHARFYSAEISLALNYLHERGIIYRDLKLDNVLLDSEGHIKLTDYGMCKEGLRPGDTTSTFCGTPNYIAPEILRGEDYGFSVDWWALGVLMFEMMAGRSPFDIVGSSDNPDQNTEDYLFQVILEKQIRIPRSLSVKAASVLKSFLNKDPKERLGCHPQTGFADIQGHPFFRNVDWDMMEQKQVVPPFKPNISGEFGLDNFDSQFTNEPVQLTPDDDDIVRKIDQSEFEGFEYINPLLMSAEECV
Method: as §1

Plk4(h) = Plk4(h) (Homo sapiens, UniProt O00444); test: Kinase Profiler; assay type: biochemical
Method: as §3

JAK3(h) = JAK3(h) (Homo sapiens, UniProt P52333); test: Kinase Profiler; assay type: biochemical
Method: as §1

NEK7(h) = NEK7(h) (Homo sapiens, UniProt Q8TDX7); test: Kinase Profiler; assay type: biochemical
Method: as §1

PKD2(h) = PKD2(h) (Homo sapiens, UniProt Q9BZL6); test: Kinase Profiler; assay type: biochemical
PKD2(h), sequence (Q9BZL6 whole entry): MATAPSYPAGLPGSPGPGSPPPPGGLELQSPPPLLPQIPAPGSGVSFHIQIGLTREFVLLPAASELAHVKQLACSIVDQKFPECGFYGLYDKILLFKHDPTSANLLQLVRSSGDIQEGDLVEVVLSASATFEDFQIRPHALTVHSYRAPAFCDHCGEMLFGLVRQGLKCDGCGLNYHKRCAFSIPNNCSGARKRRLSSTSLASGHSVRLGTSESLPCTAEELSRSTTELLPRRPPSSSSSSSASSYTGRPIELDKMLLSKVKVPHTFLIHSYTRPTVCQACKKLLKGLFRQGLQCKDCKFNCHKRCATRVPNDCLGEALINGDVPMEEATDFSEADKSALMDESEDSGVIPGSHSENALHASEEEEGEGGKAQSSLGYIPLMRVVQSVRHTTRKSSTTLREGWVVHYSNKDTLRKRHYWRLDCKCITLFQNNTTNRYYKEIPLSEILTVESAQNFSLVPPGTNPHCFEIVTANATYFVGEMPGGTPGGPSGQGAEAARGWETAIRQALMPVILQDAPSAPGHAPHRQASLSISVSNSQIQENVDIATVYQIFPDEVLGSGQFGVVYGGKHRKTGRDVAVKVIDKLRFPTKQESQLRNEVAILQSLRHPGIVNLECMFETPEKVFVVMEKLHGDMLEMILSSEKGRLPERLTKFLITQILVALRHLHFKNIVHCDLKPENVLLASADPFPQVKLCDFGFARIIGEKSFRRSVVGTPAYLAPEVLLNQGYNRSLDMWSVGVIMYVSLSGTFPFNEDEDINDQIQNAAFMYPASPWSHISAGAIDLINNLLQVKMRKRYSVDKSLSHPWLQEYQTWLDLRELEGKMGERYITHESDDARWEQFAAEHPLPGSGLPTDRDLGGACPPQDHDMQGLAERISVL
Method: as §1

CDK9/cyclin T1(h) = CDK9/cyclin T1(h) (Homo sapiens, UniProt P50750); test: Kinase Profiler; assay type: biochemical
Method: as §3

Met(Y1248D)(h) = Met(Y1248D)(h) (Homo sapiens, UniProt P08581, Y1230D); test: Kinase Profiler; assay type: biochemical
Method: as §1

[3] = Ames fluctuation test (2nd group); assay type: cell-based
Excerpt: Data S3. Ames-fluctuation assay-A41.
Test Concentration Count Positive Significance Fisher Exact Test
(# of wells) (- to +++) (p-value)
Ames fluctuation test (TA100 + S9

NLK(h) = NLK(h) (Homo sapiens, UniProt Q9UBE8); test: Kinase Profiler; assay type: biochemical
Method: as §1

[4] = target: PI3K (p110a(H1047R)/p85a)(h) (Homo sapiens, UniProt P42336, H1047R); test: Kinase Profiler; assay type: biochemical
Method: as §1

DYRK1A(h) = DYRK1A(h) (Homo sapiens, UniProt Q13627); test: Kinase Profiler; assay type: biochemical
Method: as §3

CK1δ(h) = CK1δ(h) (Homo sapiens, UniProt P48730); test: Kinase Profiler; assay type: biochemical
CK1δ(h), sequence (P48730 whole entry): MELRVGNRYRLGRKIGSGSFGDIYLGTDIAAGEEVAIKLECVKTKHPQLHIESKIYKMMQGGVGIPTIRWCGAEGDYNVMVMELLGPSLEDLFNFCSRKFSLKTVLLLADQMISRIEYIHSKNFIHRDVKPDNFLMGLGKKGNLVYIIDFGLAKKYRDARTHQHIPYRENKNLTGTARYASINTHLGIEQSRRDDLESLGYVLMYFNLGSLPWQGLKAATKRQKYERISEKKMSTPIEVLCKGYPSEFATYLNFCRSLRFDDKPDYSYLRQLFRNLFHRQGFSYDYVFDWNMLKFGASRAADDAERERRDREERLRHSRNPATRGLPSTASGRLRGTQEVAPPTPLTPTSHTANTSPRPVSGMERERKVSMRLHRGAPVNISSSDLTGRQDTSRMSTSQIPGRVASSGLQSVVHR
Method: as §1

DAPK1(h) = DAPK1(h) (Homo sapiens, UniProt P53355); test: Kinase Profiler; assay type: biochemical
Method: as §1

Rsk4(h) = Rsk4(h) (Homo sapiens, UniProt Q9UK32); test: Kinase Profiler; assay type: biochemical
Rsk4(h), sequence (Q9UK32 whole entry): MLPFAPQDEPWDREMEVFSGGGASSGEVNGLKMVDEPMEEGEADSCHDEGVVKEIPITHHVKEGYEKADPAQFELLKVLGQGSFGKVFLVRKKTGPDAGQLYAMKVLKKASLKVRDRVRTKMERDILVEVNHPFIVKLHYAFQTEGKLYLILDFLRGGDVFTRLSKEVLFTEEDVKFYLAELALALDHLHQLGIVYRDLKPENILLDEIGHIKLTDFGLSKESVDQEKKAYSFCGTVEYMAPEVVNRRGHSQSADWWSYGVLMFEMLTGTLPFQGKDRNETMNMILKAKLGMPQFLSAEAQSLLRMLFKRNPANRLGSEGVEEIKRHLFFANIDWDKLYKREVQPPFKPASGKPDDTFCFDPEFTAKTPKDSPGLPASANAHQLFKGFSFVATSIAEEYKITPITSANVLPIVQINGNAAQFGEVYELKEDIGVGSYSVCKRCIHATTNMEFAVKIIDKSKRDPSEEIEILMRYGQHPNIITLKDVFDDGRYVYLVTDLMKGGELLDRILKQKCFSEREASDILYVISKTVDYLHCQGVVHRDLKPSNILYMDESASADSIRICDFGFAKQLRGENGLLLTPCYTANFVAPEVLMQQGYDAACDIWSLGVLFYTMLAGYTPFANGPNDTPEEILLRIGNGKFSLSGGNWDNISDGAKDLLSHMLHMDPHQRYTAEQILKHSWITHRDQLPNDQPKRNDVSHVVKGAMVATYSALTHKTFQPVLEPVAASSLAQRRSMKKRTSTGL
Method: as §1

[5] = target: Serotonin (5-Hydroxytryptamine) 5-HT2B (Homo sapiens, UniProt P41595); test: Safety screen; assay type: binding
Method: as §2

Angiotensin AT1 = Angiotensin AT1 (Homo sapiens, UniProt P30556); test: Safety screen; assay type: binding
Angiotensin AT1, sequence (P30556 whole entry): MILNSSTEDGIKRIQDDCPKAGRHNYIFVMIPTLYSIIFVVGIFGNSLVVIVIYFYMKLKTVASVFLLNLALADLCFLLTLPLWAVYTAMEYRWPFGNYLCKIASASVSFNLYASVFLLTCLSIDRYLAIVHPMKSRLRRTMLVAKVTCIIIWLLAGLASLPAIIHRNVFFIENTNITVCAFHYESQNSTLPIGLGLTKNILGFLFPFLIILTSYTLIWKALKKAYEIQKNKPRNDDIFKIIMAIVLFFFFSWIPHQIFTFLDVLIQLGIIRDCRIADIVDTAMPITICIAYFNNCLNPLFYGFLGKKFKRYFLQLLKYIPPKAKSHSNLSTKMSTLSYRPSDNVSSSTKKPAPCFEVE
Method: as §3

TGFBR2(h) = TGFBR2(h) (Homo sapiens, UniProt P37173); test: Kinase Profiler; assay type: biochemical
TGFBR2(h), sequence (P37173 23-567): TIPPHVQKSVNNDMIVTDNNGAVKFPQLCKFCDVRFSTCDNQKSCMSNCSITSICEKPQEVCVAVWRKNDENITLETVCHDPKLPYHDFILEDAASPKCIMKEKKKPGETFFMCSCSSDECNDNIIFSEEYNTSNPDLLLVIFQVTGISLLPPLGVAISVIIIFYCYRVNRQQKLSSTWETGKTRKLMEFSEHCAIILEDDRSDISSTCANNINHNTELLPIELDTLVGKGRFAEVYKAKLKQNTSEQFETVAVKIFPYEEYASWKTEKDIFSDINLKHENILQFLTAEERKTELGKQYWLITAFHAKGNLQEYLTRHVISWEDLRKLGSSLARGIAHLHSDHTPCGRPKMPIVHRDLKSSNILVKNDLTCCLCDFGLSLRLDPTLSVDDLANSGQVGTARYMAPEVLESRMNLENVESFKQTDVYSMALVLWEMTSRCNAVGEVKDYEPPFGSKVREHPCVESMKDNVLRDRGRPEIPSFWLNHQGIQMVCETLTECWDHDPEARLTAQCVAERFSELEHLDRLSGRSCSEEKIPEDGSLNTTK
Method: as §3

Muscarinic M3 = Muscarinic M3 (Homo sapiens, UniProt P20309); test: Safety screen; assay type: binding
Method: as §2

TLK2(h) = TLK2(h) (Homo sapiens, UniProt Q86UE8); test: Kinase Profiler; assay type: biochemical
Method: as §1

## COc1ccc(OC)c(NS(=O)(=O)c2ccc(NC(=O)CCSc3ccc(C)cc3)cc2)c1 [Compound A41]
JAK1(h)
  Activity(%): 99%
ZAK(h)
  Activity(%): 109%
Met(D1246N)(h)
  Activity(%): 119%
[1]
  biological parameters incl. weight: None of the parameters measured, including the weight of the mice, was affected
  deaths: No deaths
  visual inspection (suffering, behavior): no sign of suffering or abnormal behavior
[2]
  % inh.: 14%
TTK(h)
  Activity(%): 103%
AMPKα2(h)
  Activity(%): 111%
PKG1α(h)
  Activity(%): 113%
Lyn(h)
  Activity(%): 109%
IRAK4(h)
  Activity(%): 99%
ACTR2(h)
  Activity(%): 108%
CK2(h)
  Activity(%): 110%
PKCι(h)
  Activity(%): 93%
Plk4(h)
  Activity(%): 104%
JAK3(h)
  Activity(%): 106%
NEK7(h)
  Activity(%): 97%
PKD2(h)
  Activity(%): 100%
CDK9/cyclin T1(h)
  Activity(%): 92%
Met(Y1248D)(h)
  Activity(%): 118%
[3]; 1.0E-04 M
  Count Positive (# of wells): 0
[3]; 1.0E-05 M
  Count Positive (# of wells): 1
[3]; 5.0E-05 M
  Count Positive (# of wells): 0
[3]; 5.0E-06 M
  Count Positive (# of wells): 3
NLK(h)
  Activity(%): 99%
[4]
  Activity(%): 97%
DYRK1A(h)
  Activity(%): 93%
CK1δ(h)
  Activity(%): 96%
DAPK1(h)
  Activity(%): 117%
Rsk4(h)
  Activity(%): 128%
[5]
  % inh.: 90%
Angiotensin AT1
  % inh.: 17%
TGFBR2(h)
  Activity(%): 99%
Muscarinic M3
  % inh.: 4%
TLK2(h)
  Activity(%): 101%
